Source: article PMC6838151 (Scientific Reports, 2019)
“Also recorded” adds a separate entry of the source. Like-named read-outs stand apart in the source and are kept apart here.

Legend:
[1] = Cytotoxicity IC50, TOX-8 resazurin assay, hASCs, 24 h; type: cell-based, human; conditions: female, human
Procedure: (§1) Human Adipose Tissue-derived Stem Cells (hASCs) were isolated from subcutaneous adipose tissue fragments harvested from non-diabetic female donors (age range 33–38, n = 2) during standard surgical procedure of total hip arthroplasty. Immediately after collection of tissue, the samples were placed in sterile tissue-transport medium (Hank’s Balanced Salt Solution (HBSS) supplemented with 1% Penicillin/Streptomycin/Amphotericin B solution (P/S/A). Mesenchymal stromal cell isolation was performed using enzymatic digestion of extracellular matrix with collagenase type I. Before digestion, tissue specimens were washed twice with HBSS and incubated in collagenase type I solution (1 mg/mL) at 37 °C for 40 min. The digest was subsequently centrifuged (1200 × g; 10 minutes; room temperature) and the cell pellet was resuspended in Dulbecco’s modified Eagle’s medium (DMEM) with Nutrient F-12 Ham, 10% of Fetal Bovine Serum (FBS), and 1% of P/S/A, transferred to a culture flask, and kept in culture under optimal conditions (37 °C in a humidified atmosphere of 5% CO2). The medium was refreshed every 2–3 days. At 80–90% confluence, the cells were passaged using trypsin solution (TrypLE Express, Life Technologies, California, USA). At passage 3, hASCs were collected and cellular phenotype was confirmed by the high expression of markers CD44, CD29, CD73, CD105 and low expression of CD45. Moreover, the trilineage differentiation capacity of ASCs was confirmed as previously described.
(§2) The IC50 values were determined using in vitro Toxicology TOX-8 Assay Kit (resazurin based) according to the manufacturer’s protocol. For this assay, cells were seeded in a 96-well plate at a density of 5 × 10^3 cells/well. The cells were pre-incubated in drug-free complete medium for 24 h before adding various concentrations of the compounds to be investigated. Stock solutions of the compounds were prepared in DMSO following serial dilutions in DMEM with Nutrient F-12 Ham complete medium. The cells exposure period was 24 h. After that time media were replaced with 10% v/v resazurin dye solution in fresh complete culture medium. Incubation was carried out for 2 h at 37 °C in the CO2 incubator. Reduction of the dye was measured spectrophotometrically at 600 nm and 690 nm reference wavelength (Epoch, Biotek). Absorbance measurements allowed the determination of viable treated cells relative to untreated controls using the inflection point of a dose-response graph. IC50 values were estimated as duplicates of triplicate readings in two independent experiments.

HepaRG cells = conditions: cited from earlier work
C. albicans CAF2-1 = test: microbe, parasite or virus in culture; type: cell-based, Candida albicans; conditions: for effect of combination with higher Flc concentrations: KeP (0.39 uM) / KeOP (1.56 uM) combined with 3.25 and 6.25 uM Flc, CAF2-1
Procedure: The synergistic effects of KeOP/KeP with Flc were determined using the M27-A3 method with modifications. Flc and KeOP/KeP stock solutions in DMSO (10 mM) were (alone and simultaneously) diluted in RPMI-1640 medium to obtain final concentrations of^1/8; ^1/4; ^1/2; 1 × MIC50 towards C. albicans CAF2-1 strain in microdilution sterile plates (Sarstedt). Statistical significance analysis was performed using Student’s t-test ([…], unpaired) comparing viability in the presence of corresponding Flc concentrations with/without KeOP/KeP.

hASCs = test: Confocal imaging of mitochondrial network (MitoRed) and F-actin (Phalloidin Atto 590) in hASCs; type: cell-based, human; conditions: 20 µM, 24 h
Procedure: The mitochondrial network was visualized using MitoRed staining. After 24-hours treatment with either Ke, KeP or KeOP, the media were removed and replaced with MitoRed dye in 1:1000 dilution in fresh complete media. Cells were incubated for 30 minutes at 37 °C, then washed with Phosphate Buffered Saline (PBS), fixed with 4% paraformaldehyde (PFA) solution, washed three times and nuclei were counterstained with diamidino-2-phenylindole (DAPI).
In order to perform F-actin imaging, cells were fixed with 4% PFA solution, washed with PBS and then permeabilized using 0.5% TX-100 (incubation 15 minutes, room temperature). The cells were rinsed and incubated with Phalloidin-Atto 590 solution in PBS (dilution 1:1000) at 37 °C for 30 minutes in the dark. After washing, the cells were counterstained with DAPI.
Cells were observed and images were taken using confocal microscopy performed with a Leica TCS-SP8 laser scanning confocal microscope. Data were further processed with the use of ImageJ software.

[2] = system: hASCs (human adipose-derived stromal cells); test: Cytotoxicity IC50, TOX-8 resazurin assay, hASCs, 24 h; type: cell-based; conditions: hASCs, TOX-8 assay, 24 h
Procedure: as §1, §2

[3] = hASCs, TOX-8 assay, 24 h, read-out: IC50 (cytotoxicity, hASCs viability)
[4] = Candida albicans, CAF21, read-out: Viability of C. albicans CAF2-1

CC(=O)N1CCN(c2ccc(OCC3COC(Cn4ccnc4)(c4ccc(Cl)cc4Cl)O3)cc2)CC1 (stereo not shown) [Ke, ketoconazole, reference compound]
IC50 at 24 h [1, 3]: 121 µM | concentration at which cytotoxicity started (HepaRG cells): 100 µM

Clc1ccc([C@@]2(Cn3ccnc3)OC[C@H](COc3ccc(N4CCN(CP(c5ccccc5)c5ccccc5)CC4)cc3)O2)c(Cl)c1 (racemic) [KeP, Ph2PCH2-Ke]
MIC50 of Flc in combination (C. albicans CAF2-1; C. albicans CAF2-1, with KeP (0.39 uM), reduced from 6.25 uM): 1.56 µM | viability at 0.39 µM (C. albicans CAF2-1; [4]): 115 ± 9.06% | viability at 0.78 µM (C. albicans CAF2-1; [4]): 102 ± 1.98% | viability at 1.56 µM (C. albicans CAF2-1; [4]): 96.8 ± 3.21% | effect of combination with higher Flc concentrations (C. albicans CAF2-1): fungicidal effect | IC50 at 24 h ([1]; IC50 (cytotoxicity, hASCs viability)): 37.6 µM | mitochondrial membrane potential (MitoRed staining) (hASCs): lowest mitochondrial membrane potential | number of mitochondria (MitoRed staining) (hASCs): lowest number of mitochondria

Clc1ccc([C@@]2(Cn3ccnc3)OC[C@H](COc3ccc(N4CCN(CP(=[Se])(c5ccccc5)c5ccccc5)CC4)cc3)O2)c(Cl)c1 [KeSeP, Ph2P(Se)CH2-Ke]
IC50 at 24 h [1, 3]: 110 µM

S=P(CN1CCN(c2ccc(OC[C@H]3CO[C@](Cn4ccnc4)(c4ccc(Cl)cc4Cl)O3)cc2)CC1)(c1ccccc1)c1ccccc1 [KeSP, Ph2P(S)CH2-Ke]
IC50 (cytotoxicity, hASCs viability) [2]: not cytotoxic in the tested concentration range; also recorded: not toxic

O=P(CN1CCN(c2ccc(OC[C@H]3CO[C@](Cn4ccnc4)(c4ccc(Cl)cc4Cl)O3)cc2)CC1)(c1ccccc1)c1ccccc1 (racemic) [KeOP, Ph2P(O)CH2-Ke]
viability at 0.1 µM (C. albicans CAF2-1; [4]): 102 ± 2.22% | viability at 0.2 µM (C. albicans CAF2-1; [4]): 93.9 ± 7.22% | viability at 0.39 µM (C. albicans CAF2-1; [4]): 91.2 ± 10.7% | effect of combination with higher Flc concentrations (C. albicans CAF2-1): fungicidal effect
